{"source": "patent US5635594A", "about": "“Gallinacins - antibiotic peptides” (University of California, Los Angeles, priority 1994, dated 1997)", "note": "Where no end group is shown, it is not given here.", "data": [{"tested_on": "Candida albicans strain 820", "test": "ultrasensitive radial diffusion assay in agarose gels, Candida", "type": "cell-based", "details": "underlay agar pH 7.4, overnight incubation, FIG. 5c", "description": "Aliquots of these column fractions were dried by vacuum centrifugation, resuspended in a small volume (approximately 17 μl) of 0.01% HOAc and 5 μl samples were tested for antimicrobial activity against Escherichia coli ML-35, Listeria monocytogenes strain EGD and Candida albicans strain 820, by the ultrasensitive radial diffusion technique described by Lehrer, R. I. et al. J Immunol Meth (1991) 137:167-173. […] A 1 mm diameter clear zone around the sample well after overnight incubation corresponded to 10 units of microbicidal activity.\nThe radial diffusion assay in agarose gels described in Example 1 was also used to test the activity of the purified gallinacins. FIGS. 5a, 5b and 5c show the results against three test organisms in units described as above. Rabbit defensin (NP-1) and human defensin (HNP-1) were used as controls.", "values": [{"substance": "Gal2: 36-residue antimicrobial peptide isolated from chicken neutrophils, six cysteines in three intramolecular disulfide bonds (LFCKGGSCHFGGCPSHLIKVGSCFGFRSCCKWPWNA; not fully specified (residues 3, 8, 13, 23, 29, 30, bridges); also: native peptide: three intramolecular disulfides, pairing not given here)", "antifungal activity against Candida albicans": "relatively poor activity"}, {"substance": "Gal1α: antimicrobial peptide isolated from chicken neutrophils; differs from Gal1 only in positions 10, 20 and 32", "antifungal activity against Candida albicans": "effective"}, {"substance": "Gal1: 39-residue antimicrobial peptide isolated from chicken neutrophils, six cysteines in three intramolecular disulfide bonds", "antifungal activity against Candida albicans": "effective"}]}]}
